Measurements: ChEMBL document CHEMBL5126629, “Paradoxical Increase of Permeability and Lipophilicity with the Increasing Topological Polar Surface Area within a Series of PRMT5 Inhibitors” (J Med Chem, 2022)

Experiments:
[1] = Lipophilicity, logD of the compound in octanol and phosphate buffer at pH 7.4 incubated for 4 hrs under shaking condition by liquid chromatography tandem mass spectrometry; format: physicochemical
[2] = Metabolic stability in human liver microsomes assessed as intrinsic clearance measured upto 30 mins in presence of NADPH by LC/MS/MS analysis; format: ADME, Microsome; conditions: read-out: CLH
[3] = biological target: Protein arginine N-methyltransferase 5 (Homo sapiens, UniProt O14744); experiment: Inhibition of PRMT5 methyltransferase activity in human MTAP -/- Calu-6 cells assessed as reduction in SmB SDMA levels measured after 2 days by HTRF based assay; format: cell-based
[4] = Efflux ratio of apparent permeability across […] in MDCK-MDR1 incubated for 120 mins by LC-MS analysis; format: ADME, cell-based, Canis lupus familiaris; conditions: dog, mdck-mdr1, 2 h

Protein arginine N-methyltransferase 5, sequence (O14744 whole entry): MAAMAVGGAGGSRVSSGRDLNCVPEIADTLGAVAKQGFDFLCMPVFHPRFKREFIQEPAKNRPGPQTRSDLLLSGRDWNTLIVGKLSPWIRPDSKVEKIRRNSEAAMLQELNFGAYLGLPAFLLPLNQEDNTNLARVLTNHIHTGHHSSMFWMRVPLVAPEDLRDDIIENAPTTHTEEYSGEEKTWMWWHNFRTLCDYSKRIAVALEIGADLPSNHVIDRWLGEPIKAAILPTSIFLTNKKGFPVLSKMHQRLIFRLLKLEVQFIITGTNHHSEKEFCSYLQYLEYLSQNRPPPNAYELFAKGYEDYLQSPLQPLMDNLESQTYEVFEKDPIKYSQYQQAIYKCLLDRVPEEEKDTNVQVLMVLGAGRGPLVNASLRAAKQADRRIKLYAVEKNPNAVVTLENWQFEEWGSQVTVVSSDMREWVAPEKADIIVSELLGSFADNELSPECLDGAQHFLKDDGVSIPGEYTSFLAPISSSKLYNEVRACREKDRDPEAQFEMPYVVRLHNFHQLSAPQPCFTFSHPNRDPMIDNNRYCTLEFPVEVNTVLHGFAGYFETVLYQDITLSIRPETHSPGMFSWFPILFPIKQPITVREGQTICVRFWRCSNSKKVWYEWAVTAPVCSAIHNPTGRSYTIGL

## Cc1cc2ncc(Cn3c(C(=O)N(C)c4ccccc4)cn(C)c3=O)cc2nc1N
[1]
  logD at 4 h: 1.1
[2]
  microsomal CLint: 36 µL/min/mg
[3]
  IC50: 0.029 µM

## Cc1cc2ccc(Cn3c(C(=O)N(C)c4ccccc4)cn(C)c3=O)cc2nc1N
[1]
  logD at 4 h: 1.6
[2]
  microsomal CLint: 395 µL/min/mg
[3]
  IC50: 0.002 µM
[4]
  Ratio: 35

## Cc1cc2ccc(Cn3c(C(=O)N(C)c4ccccc4)coc3=O)cc2nc1N
[1]
  logD at 4 h: 1.8
[2]
  microsomal CLint: 240 µL/min/mg
[3]
  IC50: 0.001 µM
[4]
  Ratio: 2

## Cc1cc2ccc(Cn3c(C(=O)N(C)c4ccccc4)nn(C)c3=O)cc2nc1N
[1]
  logD at 4 h: 1.9
[2]
  microsomal CLint: 97 µL/min/mg
[3]
  IC50: 0.002 µM
[4]
  Ratio: 6

## Cc1cc2ccc(Cn3c(C(=O)N(C)c4ccccc4)cccc3=O)cc2nc1N
[1]
  logD at 4 h: 2
[2]
  microsomal CLint: 422 µL/min/mg
[3]
  IC50: 0.017 µM
[4]
  Ratio: 22

## Cc1cc2ccc(Cn3c(C(=O)N(C)c4ccccc4)noc3=O)cc2nc1N
[1]
  logD at 4 h: 2.9
[2]
  microsomal CLint: > 700 µL/min/mg
[3]
  IC50: 0.049 µM
[4]
  Ratio: 1

## Cc1cc2ccc(Cn3c(C(=O)N(C)c4ccccn4)nn(C)c3=O)cc2nc1N
[1]
  logD at 4 h: 0.9
[2]
  microsomal CLint: < 25 µL/min/mg
[3]
  IC50: 0.021 µM
[4]
  Ratio: 17

## Cc1cc2ccc(Cn3nncc3C(=O)N(C)c3ccccc3)cc2nc1N
[1]
  logD at 4 h: 2.1
[2]
  microsomal CLint: 547 µL/min/mg
[3]
  IC50: 0.05 µM
[4]
  Ratio: 3

## Cc1cc2ccc(Cn3nccc3C(=O)N(C)c3ncccc3F)cc2nc1N
[1]
  logD at 4 h: 1.8
[2]
  microsomal CLint: 89 µL/min/mg
[3]
  IC50: 0.014 µM
[4]
  Ratio: 1

## Cc1cc2ccc(Cn3c(C(=O)N(C)c4ccccn4)cn(C)c3=O)cc2nc1N
[1]
  logD at 4 h: 0.8
[2]
  microsomal CLint: 28 µL/min/mg
[3]
  IC50: 0.009 µM
[4]
  Ratio: 14

## Cc1cc2ccc(Cn3c(C(=O)N(C)c4ccccc4)nccc3=O)cc2nc1N
[1]
  logD at 4 h: 2.1
[2]
  microsomal CLint: 299 µL/min/mg
[3]
  IC50: 0.039 µM
[4]
  Ratio: 8
